Experimental findings from patent publication US20020049223A1, “Quinoline and naphthyridine carboxylic acid antibacterials” (priority 1999, published 2002) are described below.

Common to all, as to assay: Assay B: in vitro antibacterial activity, broth microdilution MIC (NCCLS)
What all share (assay type): cell-based

The test system of experiment [1] is Streptococcus pneumoniae ATCC 6303. Particulars: Table 2, Assay B, Mueller Hinton broth with 3% lysed horse blood, 20 to 24 hr; code F = Streptococcus pneumoniae ATCC 6303; unit assumed. Here is the method:
(§1) Assay B. Determination of Biological Activity In Vitro Assay of Antibacterial Activity
(§2) Representative compounds of the invention were assayed in vitro for antibacterial activity. The susceptibilities of aerobic, nonfastidious species were determined visually by broth microdilution as described by the National Committee for Clinical Laboratory Standards (NCCLS) (National Committee for Clinical Laboratory Standards. 1997. Methods for dilution antimicrobial susceptibility tests for bacteria that grow aerobically. Approved standard M7-A4. National Committee for Clinical Laboratory Standards. Wayne, Pa.). In brief, serial two-fold dilutions of test compounds were made in cation-adjusted Mueller Hinton broth at two-times the final concentration. Inocula were prepared from overnight cultures of test strains. Tests were inoculated with a suspension of bacteria in Mueller Hinton broth to achieve a final density of approximately 5×10^5 CFU/mL. Tests were incubated at 35° C. in ambient air for 16 to 20 hr. Minimum Inhibitory Concentrations (MICs) were determined as the lowest drug concentration completely inhibiting growth. Ciprofloxacin was included as a control. For testing S. pneumoniae, the cation-adjusted Mueller Hinton broth was supplemented with 3% lysed horse blood and the incubation period was extended to 20 to 24 hr. For testing H. influenzae, the cation-adjusted Mueller Hinton broth was supplemented with 5 g/L yeast extract, […] and 15 mg/L NAD and incubation was extended to 20 to 24 hr..

The next experiment has as its system Escherichia coli JUHL. Particulars: Table 2, Assay B, cation-adjusted Mueller Hinton broth, 35° C., 16 to 20 hr; code D = Escherichia coli JUHL; unit assumed. Here is the method:
as §1, §2

The subject of experiment [2] is Staphylococcus aureus ATCC 6538P. The conditions noted are these: Table 2, Assay B, cation-adjusted Mueller Hinton broth, 35° C., 16 to 20 hr; code A = Staphylococcus aureus ATCC 6538P; unit assumed. On the procedure: as §1, §2
In experiment [3] the test system is Haemophilus influenzae DILL AMP R. Particulars: Table 2, Assay B, Mueller Hinton broth with yeast extract, hematin and NAD, 20 to 24 hr; code E = Haemophilus influenzae DILL AMP R; unit assumed. Here is the method: as §1, §2
Experiment [4] relates to Enterococcus faecalis PIU 1967. The conditions noted are these: Table 2, Assay B, cation-adjusted Mueller Hinton broth, 35° C., 16 to 20 hr; code B = Enterococcus faecalis PIU 1967; unit assumed. Here is the method: as §1, §2

For the compound `COc1c(-c2cc3c(s2)CC(N)CC3)ccc2c(=O)c(C(=O)O)cn(C3CC3)c12.O=C(O)C(F)(F)F` (stereo not drawn) [Example 71, 7-(6-amino-4,5,6,7-tetrahydro-1-benzothien-2-yl)-1-cyclopropyl-8-methoxy-4-oxo-1,4-dihydro-3-quinolinecarboxylic acid, trifluoroactic acid salt], the Antibacterial Activity (MIC's), F in experiment [1] was 0.015 µg/mL. In addition, in the experiment with Escherichia coli JUHL, the Antibacterial Activity (MIC's), D was 0.06 µg/mL. Besides, the Antibacterial Activity (MIC's), A in experiment [2] worked out at 0.03 µg/mL. The Antibacterial Activity (MIC's), E in experiment [3] is 0.015 µg/mL. Moreover, in experiment [4], the Antibacterial Activity (MIC's), B is 0.03 µg/mL.
Consider `COc1c(-c2cc3c(s2)CCCC3=NOCc2ccccc2)ccc2c(=O)c(C(=O)O)cn(C3CC3)c12` [Example 73], for which, in experiment [1], the Antibacterial Activity (MIC's), F came to 0.06 µg/mL. This compound also displayed an Antibacterial Activity (MIC's), D with Escherichia coli JUHL of 0.5 µg/mL. For the same compound, the Antibacterial Activity (MIC's), A in experiment [2] is 0.015 µg/mL. Also, the Antibacterial Activity (MIC's), E in experiment [3] was determined as 0.03 µg/mL. Also, the Antibacterial Activity (MIC's), B in experiment [4] came out at 0.06 µg/mL.
As to `COc1c(-c2cc3c(s2)CCCC3=NN2CCCC2)ccc2c(=O)c(C(=O)O)cn(C3CC3)c12` [Example 74, 1-cyclopropyl-8-methoxy-4-oxo-7-((4E/Z)-4-(1-pyrrolidinylimino)-4,5,6,7-tetrahydro-1-benzothien-2-yl)-1,4-dihydro-3-quinolinecarboxylic acid], in experiment [1], the Antibacterial Activity (MIC's), F worked out at 0.125 µg/mL. Also, the Antibacterial Activity (MIC's), D in the experiment with Escherichia coli JUHL was found to be 0.5 µg/mL. In experiment [2], the Antibacterial Activity (MIC's), A was 0.015 µg/mL. The Antibacterial Activity (MIC's), E in experiment [3] turned out to be 0.06 µg/mL. The compound further came in with an Antibacterial Activity (MIC's), B in experiment [4] of 0.25 µg/mL.
For `COc1c(-c2cc3c(s2)CCC(N)C3)ccc2c(=O)c(C(=O)O)cn(C3CC3)c12.Cl` (stereo not drawn) [Example 76, 7-(5-amino-4,5,6,7-tetrahydro-1-benzothien-2-yl)-1-cyclopropyl-8-methoxy-4-oxo-1,4-dihydro-3-quinolinecarboxylic acid hydrochloride], in experiment [1], the Antibacterial Activity (MIC's), F turned out to be 0.03 µg/mL. In the experiment with Escherichia coli JUHL, this compound registered an Antibacterial Activity (MIC's), D of 0.06 µg/mL. The same compound gave an Antibacterial Activity (MIC's), A in experiment [2] of 0.015 µg/mL. The compound also showed an Antibacterial Activity (MIC's), E in experiment [3] of 0.03 µg/mL. In experiment [4], this compound had an Antibacterial Activity (MIC's), B of 0.06 µg/mL.
In turn, `CNC1CCCc2sc(-c3ccc4c(=O)c(C(=O)O)cn(C5CC5)c4c3OC)cc21.Cl` (stereo not drawn) [Example 77, 1-cyclopropyl-8-methoxy-7-[4-(methylamino)-4,5,6,7-tetrahydro-1-benzothien-2-yl]-4-oxo-1,4-dihydro-3-quinolinecarboxylic acid hydrochloride] yielded an Antibacterial Activity (MIC's), F in experiment [1] of 0.03 µg/mL. Also, the Antibacterial Activity (MIC's), D in the experiment with Escherichia coli JUHL is 0.25 µg/mL. This compound also displayed an Antibacterial Activity (MIC's), A in experiment [2] of 0.015 µg/mL. This compound also came in with an Antibacterial Activity (MIC's), E in experiment [3] of 0.06 µg/mL. Moreover, the Antibacterial Activity (MIC's), B in experiment [4] turned out to be 0.125 µg/mL.
The matching figures for `CCON=C1CCc2sc(-c3ccc4c(=O)c(C(=O)O)cn(C5CC5)c4c3OC)cc2C1` [Example 78, 1-cyclopropyl-7-((5E/Z)-5-(ethoxyimino)-4,5,6,7-tetrahydro-1-benzothien-2-yl)-8-methoxy-4-oxo-1,4-dihydro-3-quinolinecarboxylic acid]: 0.25 µg/mL, 4 µg/mL, 0.125 µg/mL, 2 µg/mL and 1 µg/mL.
The matching figures for `COc1c(-c2cc3c(s2)CCC(=NOCc2ccccc2)C3)ccc2c(=O)c(C(=O)O)cn(C3CC3)c12` [Example 79, 7-((5E/Z)-5-((benzyloxy)imino)-4,5,6,7-tetrahydro-1-benzothien-2-yl)-1-cyclopropyl-8-methoxy-4-oxo-1,4-dihydro-3-quinolinecarboxylic acid]: 0.5 µg/mL, 4 µg/mL, 0.125 µg/mL, 1 µg/mL and 1 µg/mL.
In experiment [1], `COc1c(-c2cc3c(s2)CCCC3=NNC(N)=O)ccc2c(=O)c(C(=O)O)cn(C3CC3)c12` [Example 80, 7-((4E/Z)-4-((aminocarbonyl)hydrazono)-4,5,6,7-tetrahydro-1-benzothien-2-yl)-1-cylopropyl-8-methoxy-4-oxo-1,4-dihydro-3-quinolinecarboxylic acid] showed an Antibacterial Activity (MIC's), F of 0.03 µg/mL. Besides, the Antibacterial Activity (MIC's), D with Escherichia coli JUHL is over 64 µg/mL. In experiment [2], this compound had an Antibacterial Activity (MIC's), A of 32 µg/mL. In experiment [3], this compound had an Antibacterial Activity (MIC's), E of 0.06 µg/mL. The same compound showed an Antibacterial Activity (MIC's), B in experiment [4] of over 64 µg/mL.
Compound `COc1c(-c2cc3c(s2)CCCC3N(C)C)ccc2c(=O)c(C(=O)O)cn(C3CC3)c12.Cl` (stereo not drawn) [Example 83, 1-cyclopropyl-7-(4-(dimethylamino)-4,5,6,7-tetrahydro-1-benzothien-2-yl)-8-methoxy-4-oxo-1,4-dihydro-3-quinolinecarboxylic acid hydrochloride] returned an Antibacterial Activity (MIC's), F in experiment [1] of 0.125 µg/mL. This compound returned an Antibacterial Activity (MIC's), D in the experiment with Escherichia coli JUHL of 0.5 µg/mL. This compound came in with an Antibacterial Activity (MIC's), A in experiment [2] of 0.125 µg/mL. Moreover, the Antibacterial Activity (MIC's), E in experiment [3] is 0.25 µg/mL. The compound also showed an Antibacterial Activity (MIC's), B in experiment [4] of 0.5 µg/mL.
Turning to `COc1c(-c2cc3c(s2)CCCC3=NNC(N)=S)ccc2c(=O)c(C(=O)O)cn(C3CC3)c12` [Example 84, 7-((4E/Z)-4-[(aminocarbothioyl)hydrazono)-4,5,6,7-tetrahydro-1-benzothien-2-yl)-1-cyclopropyl-8-methoxy-4-oxo-1,4-dihydro-3-quinolinecarboxylic acid], the Antibacterial Activity (MIC's), F in experiment [1] was 0.25 µg/mL. The compound also registered an Antibacterial Activity (MIC's), D in the experiment on Escherichia coli JUHL of 1 µg/mL. This compound returned an Antibacterial Activity (MIC's), A in experiment [2] of 0.06 µg/mL. The same compound gave an Antibacterial Activity (MIC's), E in experiment [3] of 0.125 µg/mL. The compound also registered an Antibacterial Activity (MIC's), B in experiment [4] of 0.25 µg/mL.
`CNC(=S)NN=C1CCCc2sc(-c3ccc4c(=O)c(C(=O)O)cn(C5CC5)c4c3OC)cc21` [Example 85]: in experiment [1], the Antibacterial Activity (MIC's), F stood at 0.125 µg/mL. This compound also registered an Antibacterial Activity (MIC's), D in the experiment on Escherichia coli JUHL of 0.5 µg/mL. In experiment [2], this compound showed an Antibacterial Activity (MIC's), A of 0.03 µg/mL. The Antibacterial Activity (MIC's), E in experiment [3] amounted to 0.125 µg/mL. The compound further displayed an Antibacterial Activity (MIC's), B in experiment [4] of 0.25 µg/mL.
Compound `COc1c(-c2cc3c(s2)CCCC3NS(C)(=O)=O)ccc2c(=O)c(C(=O)O)cn(C3CC3)c12` (stereo not drawn) [Example 88, 1-cyclopropyl-8-methoxy-7-(4-((methylsulfonyl)amino)-4,5,6,7-tetrahydro-1-benzothien-2-yl)-4-oxo-1,4-dihydro-3-quinolinecarboxylic acid] returned an Antibacterial Activity (MIC's), F in experiment [1] of 0.125 µg/mL. Besides, the Antibacterial Activity (MIC's), D with Escherichia coli JUHL turned out to be 1 µg/mL. In experiment [2], the Antibacterial Activity (MIC's), A amounted to 0.015 µg/mL. In addition, the Antibacterial Activity (MIC's), E in experiment [3] was 0.125 µg/mL. For the same compound, the Antibacterial Activity (MIC's), B in experiment [4] was found to be 0.25 µg/mL.
`COc1c(-c2cc3c(s2)CCCC3n2cccc2)ccc2c(=O)c(C(=O)O)cn(C3CC3)c12` (stereo not drawn) [Example 89, 1-cyclopropyl-8-methoxy-4-oxo-7-(4-(1H-pyrrol-1-yl)-4,5,6,7-tetrahydro-1-benzothien-2-yl)-1,4-dihydro-3-quinolinecarboxylic acid] displayed an Antibacterial Activity (MIC's), F in experiment [1] of 1 µg/mL. The compound also came in with an Antibacterial Activity (MIC's), D in the experiment on Escherichia coli JUHL of 2 µg/mL. Besides, in experiment [2], the Antibacterial Activity (MIC's), A turned out to be 0.125 µg/mL. Besides, the Antibacterial Activity (MIC's), E in experiment [3] was determined as 0.5 µg/mL. In experiment [4], the Antibacterial Activity (MIC's), B worked out at 1 µg/mL.
In experiment [1], `COc1c(-c2cc3c(s2)CCCC3=NN2CCN(C)CC2)ccc2c(=O)c(C(=O)O)cn(C3CC3)c12` [Example 92, 1-cyclopropyl-8-methoxy-7-((4E/Z)-4-((4-methyl-1-piperazinyl)imino)-4,5,6,7-tetrahydro-1-benzothien-2-yl)-4-oxo-1,4-dihydro-3-quinolinecarboxylic acid] had an Antibacterial Activity (MIC's), F of 0.5 µg/mL. In the experiment with Escherichia coli JUHL, the Antibacterial Activity (MIC's), D turned out to be 1 µg/mL. In addition, the Antibacterial Activity (MIC's), A in experiment [2] was 0.03 µg/mL. In experiment [3], the Antibacterial Activity (MIC's), E turned out to be 0.06 µg/mL. For the same compound, the Antibacterial Activity (MIC's), B in experiment [4] was determined as 0.25 µg/mL.
Take `COc1c(-c2cc3c(s2)CCCC3NCc2cccnc2)ccc2c(=O)c(C(=O)O)cn(C3CC3)c12.Cl.Cl` (stereo not drawn) [Example 94, 1-cyclopropyl-8-methoxy-4-oxo-7-(4-((3-pyridinylmethyl)amino)-4,5,6,7-tetrahydro-1-benzothien-2-yl)-1,4-dihydro-3-quinolinecarboxylic acid dihydrochloride]: the Antibacterial Activity (MIC's), F in experiment [1] came to 0.5 µg/mL. The compound further gave an Antibacterial Activity (MIC's), D in the experiment on Escherichia coli JUHL of 1 µg/mL. Besides, the Antibacterial Activity (MIC's), A in experiment [2] is 0.125 µg/mL. This compound also showed an Antibacterial Activity (MIC's), E in experiment [3] of 0.25 µg/mL. Moreover, in experiment [4], the Antibacterial Activity (MIC's), B is 1 µg/mL.
